The results in this text go back to patent US20230025510A1, “BIARYL ETHER-TYPE QUINAZOLINE DERIVATIVES” (DAIICHI SANKYO COMPANY, LIMITED, priority 2018, published 2023).

Assay type in all cases: cell-based
In one assay the test system is Ba/F3-Mock cells. The assay can be described thus: Cell proliferation suppression test (CellTiter-Glo, GI50), Ba/F3-Mock. The settings on record: Mus musculus, BaF3, 72 h, 5 ng/mL IL-3, 3 days, N=4. How it is done: (§1) Cell proliferation suppression test Ba/F3-Mock, Ba/F3-EGFR WT, Ba/F3-EGFR ins. ASV, and Ba/F3-EGFR ins. SVD cell lines were cultured based on a culture medium of 10% FBS-containing RPMI 1640 supplemented with 1.5 ug/mL puromycin, and 5 ng/mL IL-3 and 100 ng/mL of EGF were further added to the culture solution for Ba/F3-Mock and Ba/F3-EGFR WT, respectively. The cells were cultured in a CO2 incubator set at 37° C., 5% CO2. Specimens prepared by dilution were seeded into 384-well tissue culture plates with Echo555 (Labcyte Inc.), and the cells were seeded thereto at 400 cells/well for Ba/F3-Mock, Ba/F3-EGFR WT, and Ba/F3-EGFR ins. SVD and at 200 cells/well for Ba/F3-EGFR ins. ASV (day 0), then they were cultured for an additional 3 days. On the day of the compound addition (day 0) and 3 days after the compound addition (day 3), ATP quantity was measured with CellTiter-Glo (registered trademark) 2.0 (Promega Corporation.), and used as an indicator of cell quantity (N=4). In the test, puromycin-free culture medium was used. Concentrations at which cell proliferation from day 0 to day 3 was inhibited by 50% (GIso) were calculated with EXCEL.

The test system of assay [1] is Ba/F3-EGFR ins. SVD cells. Nature of the assay: Cell proliferation suppression test (CellTiter-Glo, GI50), Ba/F3-EGFR ins. SVD. The settings on record: Mus musculus, 72 h, 3 days, N=4. How it is done: as §1
In general terms: In ATP-based viability assays light output follows the ATP content of the culture.

The test system of assay [2] is Ba/F3-EGFR ins. ASV cells. The assay can be described thus: Cell proliferation suppression test (CellTiter-Glo, GI50), Ba/F3-EGFR ins. ASV. Particulars: Mus musculus, 72 h, 3 days, N=4. How it is done: as §1
A further assay concerns Ba/F3-EGFR WT cells. Nature of the assay: Cell proliferation suppression test (CellTiter-Glo, GI50), Ba/F3-EGFR WT. Particulars: Mus musculus, 72 h, 100 ng/mL EGF, 3 days, N=4. The protocol:
as §1

One may read the GI50 as the concentration giving 50% growth inhibition. A low value points to greater sensitivity of the cells. As for `[2H]C([2H])([2H])Oc1cc2ncnc(Nc3ccc(Oc4ccn(C(=O)NC(C)(C)C)n4)cc3F)c2cc1OC1CCN(C(=O)C=C)CC1` [Example 20, N-tert-Butyl-3-{3-fluoro-4-[(7-[(^2H3)methyloxy]-6-{[1-(prop-2-enoyl)piperidin-4-yl]oxy}quinazolin-4-yl)amino]phenoxy}-1H-pyrazole-1-carboxamide], the GI50 in the assay with Ba/F3-Mock cells is more than 10000 nM; in assay [1] it was 9 nM; in assay [2] it was 18.6 nM; in the assay on Ba/F3-EGFR WT cells, 171 nM.

For the compound `C=CC(=O)N1CCC(Oc2cc3c(Nc4ccc(Oc5ccn(-c6ccnc(Cl)c6)n5)cc4F)ncnc3cc2OC)CC1` [Example 29, 1-(4-{[4-(4-{[1-(2-Chloropyridin-4-yl)-1H-pyrazol-3-yl]oxy}-2-fluoroanilino)-7-methoxyquinazolin-6-yl]oxy}piperidin-1-yl)prop-2-en-1-one], the GI50 was more than 10000 nM in the assay with Ba/F3-Mock cells, 7.9 nM in assay [1], 11.3 nM in assay [2] and 157 nM in the assay with Ba/F3-EGFR WT cells.

`C=CC(=O)N1CCC(Oc2cc3c(Nc4ccc(Oc5ccn(C(=O)NC(C)C)n5)cc4F)ncnc3cc2OC)CC1` [Example 6, 3-{3-Fluoro-4-[(7-methoxy-6-{[1-(prop-2-enoyl)piperidin-4-yl]oxy}quinazolin-4-yl)amino]phenoxy}-N-(propan-2-yl)-1H-pyrazole-1-carboxamide]: the GI50 came out at 5660 nM with Ba/F3-Mock cells, 19.2 nM in assay [1], 19.2 nM in assay [2] and 175 nM in the assay with Ba/F3-EGFR WT cells.

`C=CC(=O)N1CCC(Oc2cc3c(Nc4ccc(Oc5ccn(C(=O)NC(C)(C)CF)n5)cc4F)ncnc3cc2OC)CC1` [Example 5, 3-{3-Fluoro-4-[(7-methoxy-6-{[1-(prop-2-enoyl)piperidin-4-yl]oxy}quinazolin-4-yl)amino]phenoxy}-N-(1-fluoro-2-methylpropan-2-yl)-1H-pyrazole-1-carboxamide]: the 50% growth inhibitory concentration (GI50) with Ba/F3-Mock cells is more than 10000 nM; in assay [1], 4.3 nM; in assay [2], 5.4 nM; with Ba/F3-EGFR WT cells it was 77.1 nM.

Consider `COc1cc2ncnc(Nc3ccc(Oc4cccc(-c5nnc(C)o5)c4)cc3F)c2cc1NC(=O)/C=C/CN1CCCC1` [Example 50, (2E)-N-(4-{2-Fluoro-4-[3-(5-methyl-1,3,4-oxadiazol-2-yl)phenoxy]anilino}-7-methoxyquinazolin-6-yl)-4-(pyrrolidin-1-yl)but-2-enamide], for which the GI50 in the assay on Ba/F3-Mock cells came to 750 nM; in assay [1], 62.2 nM; in assay [2], 10.9 nM; in the assay on Ba/F3-EGFR WT cells, 240 nM.

As for `C=CC(=O)N1CCC(Oc2cc3c(Nc4ccc(Oc5nc(-c6cnc(C)nc6)cs5)cc4F)ncnc3cc2OC)CC1` [Example 36, 1-(4-{[4-(2-Fluoro-4-{[4-(2-methylpyrimidin-5-yl)-1,3-thiazol-2-yl]oxy}anilino)-7-methoxyquinazolin-6-yl]oxy}piperidin-1-yl)prop-2-en-1-one], the GI50 in the assay on Ba/F3-Mock cells is more than 10000 nM; in assay [1], 10 nM; in assay [2], 12 nM; with Ba/F3-EGFR WT cells it was 377 nM.

On to `COc1cc2ncnc(Nc3ccc(Oc4nn(CC(=O)NC(C)(C)C)cc4F)cc3Cl)c2cc1NC(=O)/C=C/CN1CCC(F)C1` (racemic) [Example 55, rac-(2E)-N-{4-[4-({1-[2-(tert-Butylamino)-2-oxoethyl]-4-fluoro-1H-pyrazol-3-yl}oxy)-2-chloroanilino]-7-methoxyquinazolin-6-yl}-4-(3-fluoropyrrolidin-1-yl)but-2-enamide], for which the GI50 is 4290 nM in the assay on Ba/F3-Mock cells, 10.3 nM in assay [1], 12.9 nM in assay [2] and 441 nM with Ba/F3-EGFR WT cells.

For the compound `C=CC(=O)N1CCC(Oc2cc3c(Nc4ccc(Oc5nc(-c6nnc(C(C)C)o6)cs5)cc4F)ncnc3cc2OC)CC1` [Example 33, 1-[4-({4-[2-Fluoro-4-({4-[5-(propan-2-yl)-1,3,4-oxadiazol-2-yl]-1,3-thiazol-2-yl}oxy)anilino]-7-methoxyquinazolin-6-yl}oxy)piperidin-1-yl]prop-2-en-1-one], the GI50 in the assay with Ba/F3-Mock cells is more than 10000 nM; in assay [1] it was 5.8 nM; in assay [2] it was 11.3 nM; with Ba/F3-EGFR WT cells, 163 nM.

Consider `C=CC(=O)N1CCC(Oc2cc3c(Nc4ccc(Oc5ccn(-c6ccc(C7CC7)nc6)n5)cc4F)ncnc3cc2OC)CC1` [Example 31], for which the concentration for 50% growth inhibition (GI50) is more than 10000 nM with Ba/F3-Mock cells, 12.8 nM in assay [1], 15.5 nM in assay [2] and 241 nM in the assay with Ba/F3-EGFR WT cells.

`COc1cc2ncnc(Nc3ccc(Oc4nc(CC(=O)NC(C)(C)C)cs4)cc3F)c2cc1NC(=O)/C=C/CN1CC[C@@H](OC)C1` [Example 61, (2E)-N-{4-[4-({4-[2-(tert-Butylamino)-2-oxoethyl]-1,3-thiazol-2-yl}oxy)-2-fluoroanilino]-7-methoxyquinazolin-6-yl}-4-[(3R)-3-methoxypyrrolidin-1-yl]but-2-enamide]: the GI50 in the assay with Ba/F3-Mock cells stood at 3120 nM; in assay [1], 88.1 nM; in assay [2] it was 25.6 nM; with Ba/F3-EGFR WT cells it was 731 nM.

Regarding `C=CC(=O)N1CCC(Oc2cc3c(Nc4ccc(Oc5cccc(-c6nnc(C)o6)c5)cc4F)ncnc3cc2OCC)CC1` [Example 18, 1-{4-[(7-Ethoxy-4-{2-fluoro-4-[3-(5-methyl-1,3,4-oxadiazol-2-yl)phenoxy]anilino}quinazolin-6-yl)oxy]piperidin-1-yl}prop-2-en-1-one], the GI50 was found to be 4660 nM in the assay with Ba/F3-Mock cells, 12.2 nM in assay [1], 12.2 nM in assay [2] and 158 nM in the assay on Ba/F3-EGFR WT cells.

`CCOc1cc2ncnc(Nc3ccc(Oc4cccc(-c5nnc(CC)o5)c4)cc3F)c2cc1NC(=O)/C=C/CN(C)C` [Example 42, (2E)-4-(Dimethylamino)-N-(7-ethoxy-4-{4-[3-(5-ethyl-1,3,4-oxadiazol-2-yl)phenoxy]-2-fluoroanilino}quinazolin-6-yl)but-2-enamide]: the GI50 in the assay with Ba/F3-Mock cells was 764 nM; in assay [1], 17.7 nM; in assay [2], 5.1 nM; in the assay on Ba/F3-EGFR WT cells, 103 nM.

`C=CC(=O)N1CCC(Oc2cc3c(Nc4ccc(Oc5nc(-c6cnc(C)c(F)c6)cs5)cc4F)ncnc3cc2OC)CC1` [Example 11, 1-(4-{[4-(2-Fluoro-4-{[4-(5-fluoro-6-methylpyridin-3-yl)-1,3-thiazol-2-yl]oxy}anilino)-7-methoxyquinazolin-6-yl]oxy}piperidin-1-yl)prop-2-en-1-one]: the GI50 in the assay on Ba/F3-Mock cells is more than 10000 nM; in assay [1], 12.5 nM; in assay [2], 11.3 nM; in the assay with Ba/F3-EGFR WT cells it was 290 nM.

Consider `C=CC(=O)N1CCC(Oc2cc3c(Nc4ccc(Oc5ccn(-c6ccnc(F)c6)n5)cc4F)ncnc3cc2OC)CC1` [Example 30, 1-(4-{[4-(2-Fluoro-4-{[1-(2-fluoropyridin-4-yl)-1H-pyrazol-3-yl]oxy}anilino)-7-methoxyquinazolin-6-yl]oxy}piperidin-1-yl)prop-2-en-1-one], for which the GI50 with Ba/F3-Mock cells was more than 10000 nM; in assay [1], 14 nM; in assay [2] it was 13.5 nM; in the assay on Ba/F3-EGFR WT cells, 121 nM.

On to `CCOc1cc2ncnc(Nc3ccc(Oc4cccc(-c5nnc(C)o5)c4)cc3F)c2cc1NC(=O)/C=C/CN(C)C` [Example 40, (2E)-4-(Dimethylamino)-N-(7-ethoxy-4-{2-fluoro-4-[3-(5-methyl-1,3,4-oxadiazol-2-yl)phenoxy]anilino}quinazolin-6-yl)but-2-enamide], for which the GI50 was 765 nM with Ba/F3-Mock cells, 32.9 nM in assay [1], 5.5 nM in assay [2] and 80.1 nM in the assay with Ba/F3-EGFR WT cells.

As for `CCOc1cc2ncnc(Nc3ccc(Oc4cccc(-c5nnc(C)o5)c4)cc3F)c2cc1NC(=O)/C=C/CN[C@@H]1CCOC1` [Example 53, (2E)-N-(7-Ethoxy-4-{2-fluoro-4-[3-(5-methyl-1,3,4-oxadiazol-2-yl)phenoxy]anilino}quinazolin-6-yl)-4-[(3R)-tetrahydrofuran-3-ylamino]but-2-enamide], the GI50 was found to be 2950 nM in the assay on Ba/F3-Mock cells, 16.7 nM in assay [1], 11 nM in assay [2] and 229 nM in the assay on Ba/F3-EGFR WT cells.

Turning to `COc1cc2ncnc(Nc3ccc(Oc4ccn(C(=O)N5CCCC5)n4)cc3F)c2cc1NC(=O)/C=C/CN(C)C` [Example 26, (2E)-4-(Dimethylamino)-N-[4-(2-fluoro-4-{[1-(pyrrolidin-1-ylcarbonyl)-1H-pyrazo1-3-yl]oxy}anilino)-7-methoxyquinazolin-6-yl]but-2-enamide], the GI50 was 1060 nM in the assay on Ba/F3-Mock cells, 53.7 nM in assay [1], 17.5 nM in assay [2] and 191 nM with Ba/F3-EGFR WT cells.

For `COc1cc2ncnc(Nc3ccc(Oc4nn(CC(=O)NC(C)(C)C)cc4F)cc3F)c2cc1NC(=O)/C=C/CN1CCC(F)C1` (racemic) [Example 58, rac-(2E)-N-{4-[4-({1-[2-(tert-Butylamino)-2-oxoethyl]-4-fluoro-1H-pyrazol-3-yl}oxy)-2-fluoroanilino]-7-methoxyquinazolin-6-yl}-4-(3-fluoropyrrolidin-1-yl)but-2-enamide], the GI50 stood at 4010 nM in the assay on Ba/F3-Mock cells, 6.7 nM in assay [1], 10.3 nM in assay [2] and 252 nM with Ba/F3-EGFR WT cells.
